Results as given in the supplement of paper PMC10307832.

Key:
Assay in all cases: relative viability (nuclei count vs DMSO), 5 days (fraction); higher = more cells survive
[1] = tested on: LCLC-97TM1
In short: (§1)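 Dosing by pin tool came one day after lung cancer cell lines were seeded in 1536-well plates, using either one drug or a fixed anchor-drug dose plus five library-drug doses (not always all listed) in √10 steps. After 5 days, nuclei were counted on 4× images. Relative viability is treated-well nuclei count divided by vehicle-well nuclei count, and values are medians of duplicate plates.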

[2] = tested on: NCI-H1355
In short: as §1

[3] = tested on: NCI-H1623
In short: as §1

[4] = tested on: NCI-H1993
In short: as §1

[5] = tested on: NCI-H23
In short: as §1

[6] = tested on: NCI-H322M
In short: as §1

[7] = tested on: NCI-H596
In short: as §1

[8] = tested on: UMC-11
In short: as §1

COc1cc2nccc(Oc3ccc(NC(=O)Nc4cc(C)on4)c(Cl)c3)c2cc1OC [Tivozanib] + Cc1nc(Nc2ncc(C(=O)Nc3c(C)cccc3Cl)s2)cc(N2CCN(CCO)CC2)n1 [Dasatinib] (partner 0.075 µM)
relative viability ([1]; first compound 0.005 µM): 0.941 | relative viability ([1]; first compound 0.01581 µM): 0.855 | relative viability ([1]; first compound 0.05 µM): 0.923 | relative viability ([1]; first compound 0.1581 µM): 0.921 | relative viability ([1]; first compound 0.5 µM): 0.836 | relative viability ([2]; first compound 0.005 µM): 0.672 | relative viability ([2]; first compound 0.01581 µM): 0.689 | relative viability ([2]; first compound 0.05 µM): 0.787 | relative viability ([2]; first compound 0.1581 µM): 0.413 | relative viability ([2]; first compound 0.5 µM): 0.691 | relative viability ([3]; first compound 0.005 µM): 0.509 | relative viability ([3]; first compound 0.01581 µM): 0.56 | relative viability ([3]; first compound 0.05 µM): 0.578 | relative viability ([3]; first compound 0.5 µM): 0.527 | relative viability ([4]; first compound 0.005 µM): 0.609 | relative viability ([4]; first compound 0.01581 µM): 0.605 | relative viability ([4]; first compound 0.05 µM): 0.692 | relative viability ([4]; first compound 0.1581 µM): 0.496 | relative viability ([4]; first compound 0.5 µM): 0.504 | relative viability ([5]; first compound 0.005 µM): 0.693 | relative viability ([5]; first compound 0.01581 µM): 0.707 | relative viability ([5]; first compound 0.05 µM): 0.769 | relative viability ([5]; first compound 0.1581 µM): 0.389 | relative viability ([5]; first compound 0.5 µM): 0.753 | relative viability ([6]; first compound 0.005 µM): 0.26 | relative viability ([6]; first compound 0.01581 µM): 0.241 | relative viability ([6]; first compound 0.05 µM): 0.272 | relative viability ([6]; first compound 0.1581 µM): 0.249 | relative viability ([6]; first compound 0.5 µM): 0.254 | relative viability ([7]; first compound 0.005 µM): 0.55 | relative viability ([7]; first compound 0.01581 µM): 0.591 | relative viability ([7]; first compound 0.05 µM): 0.575 | relative viability ([7]; first compound 0.5 µM): 0.522 | relative viability ([8]; first compound 0.005 µM): 0.416 | relative viability ([8]; first compound 0.01581 µM): 0.46 | relative viability ([8]; first compound 0.05 µM): 0.465 | relative viability ([8]; first compound 0.5 µM): 0.38

Cc1sc2c(c1C)C(c1ccc(Cl)cc1)=N[C@@H](CC(=O)OC(C)(C)C)c1nnc(C)n1-2 [JQ1] + Cc1nc(Nc2ncc(C(=O)Nc3c(C)cccc3Cl)s2)cc(N2CCN(CCO)CC2)n1 [Dasatinib] (partner 0.075 µM)
relative viability ([1]; first compound 0.04 µM): 0.896 | relative viability ([1]; first compound 0.1265 µM): 0.906 | relative viability ([1]; first compound 0.4 µM): 0.645 | relative viability ([1]; first compound 1.265 µM): 0.694 | relative viability ([1]; first compound 4 µM): 0.352 | relative viability ([2]; first compound 0.04 µM): 0.774 | relative viability ([2]; first compound 0.1265 µM): 0.578 | relative viability ([2]; first compound 0.4 µM): 0.617 | relative viability ([2]; first compound 1.265 µM): 0.486 | relative viability ([2]; first compound 4 µM): 0.447 | relative viability ([3]; first compound 0.04 µM): 0.634 | relative viability ([3]; first compound 0.1265 µM): 0.483 | relative viability ([3]; first compound 0.4 µM): 0.466 | relative viability ([3]; first compound 1.265 µM): 0.357 | relative viability ([3]; first compound 4 µM): 0.32 | relative viability ([4]; first compound 0.04 µM): 0.574 | relative viability ([4]; first compound 0.1265 µM): 0.798 | relative viability ([4]; first compound 0.4 µM): 0.597 | relative viability ([4]; first compound 1.265 µM): 0.532 | relative viability ([4]; first compound 4 µM): 1.44 | relative viability ([5]; first compound 0.04 µM): 0.666 | relative viability ([5]; first compound 0.1265 µM): 0.656 | relative viability ([5]; first compound 0.4 µM): 0.579 | relative viability ([5]; first compound 1.265 µM): 0.275 | relative viability ([5]; first compound 4 µM): 0.344 | relative viability ([6]; first compound 0.04 µM): 0.234 | relative viability ([6]; first compound 0.1265 µM): 0.245 | relative viability ([6]; first compound 0.4 µM): 0.24 | relative viability ([6]; first compound 1.265 µM): 0.225 | relative viability ([6]; first compound 4 µM): 0.239 | relative viability ([7]; first compound 0.04 µM): 0.671 | relative viability ([7]; first compound 0.1265 µM): 0.456 | relative viability ([7]; first compound 0.4 µM): 0.559 | relative viability ([7]; first compound 1.265 µM): 0.281 | relative viability ([7]; first compound 4 µM): 0.29 | relative viability ([8]; first compound 0.04 µM): 0.501 | relative viability ([8]; first compound 0.1265 µM): 0.43 | relative viability ([8]; first compound 0.4 µM): 0.321 | relative viability ([8]; first compound 1.265 µM): 0.239 | relative viability ([8]; first compound 4 µM): 0.221

COc1cc2nccc(Oc3ccc(NC(=O)Nc4cc(C)on4)c(Cl)c3)c2cc1OC [Tivozanib] + CCNC(=O)c1noc(-c2cc(C(C)C)c(O)cc2O)c1-c1ccc(CN2CCOCC2)cc1 [Luminespib] (partner 0.01 µM)
relative viability ([1]; first compound 0.005 µM): 0.845 | relative viability ([1]; first compound 0.01581 µM): 0.849 | relative viability ([1]; first compound 0.05 µM): 0.716 | relative viability ([1]; first compound 0.1581 µM): 0.898 | relative viability ([1]; first compound 0.5 µM): 0.738 | relative viability ([2]; first compound 0.005 µM): 0.612 | relative viability ([2]; first compound 0.01581 µM): 0.686 | relative viability ([2]; first compound 0.05 µM): 0.747 | relative viability ([2]; first compound 0.1581 µM): 0.462 | relative viability ([2]; first compound 0.5 µM): 0.728 | relative viability ([3]; first compound 0.005 µM): 0.466 | relative viability ([3]; first compound 0.01581 µM): 0.55 | relative viability ([3]; first compound 0.05 µM): 0.602 | relative viability ([3]; first compound 0.5 µM): 0.504 | relative viability ([4]; first compound 0.005 µM): 0.783 | relative viability ([4]; first compound 0.01581 µM): 0.741 | relative viability ([4]; first compound 0.05 µM): 0.955 | relative viability ([4]; first compound 0.1581 µM): 0.753 | relative viability ([4]; first compound 0.5 µM): 0.825 | relative viability ([5]; first compound 0.01581 µM): 0.198 | relative viability ([5]; first compound 0.05 µM): 0.193 | relative viability ([5]; first compound 0.1581 µM): 0.206 | relative viability ([5]; first compound 0.5 µM): 0.207 | relative viability ([6]; first compound 0.005 µM): 0.797 | relative viability ([6]; first compound 0.01581 µM): 0.882 | relative viability ([6]; first compound 0.05 µM): 0.958 | relative viability ([6]; first compound 0.1581 µM): 0.694 | relative viability ([6]; first compound 0.5 µM): 0.965 | relative viability ([7]; first compound 0.005 µM): 0.771 | relative viability ([7]; first compound 0.01581 µM): 1.04 | relative viability ([7]; first compound 0.05 µM): 1.04 | relative viability ([7]; first compound 0.5 µM): 0.858 | relative viability ([8]; first compound 0.005 µM): 1.03 | relative viability ([8]; first compound 0.01581 µM): 0.975 | relative viability ([8]; first compound 0.05 µM): 1.03 | relative viability ([8]; first compound 0.5 µM): 1.06
